# Experimental data published in patent US20090074722A1, “Products and methods for treating PTP lar diseases” (MAX-PLANCK-GESELLSCHAFT ZUR, priority 1999, published 2009).
# Columns and labels:
# NBT II cells [1] = assay: In vitro wound assay (migration of NBT II cells); type: cell-based, rat
# Procedure: FIGS. 1A and 1B show the migration of epithelial NBT II cells under varying conditions. […] Twenty-four hours after plating, the confluent cell monolayer was scratched as described in the Examples. EGF (100 ng/mL) or Ultroser G (2%) were added. Wound closure was documented by photography. The calibration bar indicates 80 pn. Migration Assays-For in vitro wound assays, NBT II cells were plated at a density of 7×10^4 cells/cm^2. After 24 hours the confluent monolayer was scratched with a pipette tip to create a cell free area, growth factors were added, and wound closure was documented by photography. For scatter assays, cells were plated at a cell density of 1×10^4 cells/cm^2. Growth factors were added after 24 hours, and the morphology of cells and the dispersion of small colonies were documented by photography. Quantification of migration was performed by counting single cells with fibroblastoid migration morphology compared to cells in groups with epithelial morphology in different, randomly chosen microscopic fields. 1000 cells per dish were counted. All migration assays were performed in triplicate. Tyrosine kinases (TK), mitogen-activated protein kinase (MAPK) or phosphatidylinositol-3-kinase (Pl3K), were inhibited by Genistein (250 μM; Biomol), added one hour before addition of the growth factors. As a control, the solvent DMSO was used. DNA synthesis was inhibited by the specific inhibitor of DNA polymerase, α Aphidicolin (1.5 μM; Serva) 1 hour before adding the growth factors. Migration of epithelial cells in tissue culture represents in many aspects a model system of the epithelial-mesenchymal transition ([…], et al. (1994) Int. Rev. Cytol. 155, 49-9). The rat bladder carcinoma cell line NBT II (Toyoshima, et al. (1971) J. Nat. Cancer Inst. 47, 979-985) was used, since certain growth factors and components of the extracellular matrix (ECM) induce migration of these cells (Valles, et al. (1990) Proc. Natl. Acad. Sci. USA 87, 1124-1128; Tchao, R. (1982) Cell Motil. 4, 333-341; Tucker, et al. (1990) Cancer Res. 50, 129-137).
# [2] = system: free, uncomplexed β-catenin; assay: Affinity precipitation of free β-catenin with GST-E-cadherin cytoplasmic fusion protein; type: cell-based, rat; conditions: EGF 100 ng/mL
# Procedure: NBT II cells were plated at a density of 1×10^4 cells/cm^2. Twenty-four hours later EGF (100 ng/mL) was added for the indicated time intervals. 30 minutes before lysis Na-orthovanadate (1 mM) was added. Subsequently affinity precipitations were performed with 5 μg of a GST/E-cadherin cytoplasmic protein or GST in a three-fold molar excess. Proteins were separated by SDS-PAGE, and the levels of free, uncomplexed β-catenin were analyzed by Western blotting with an anti-β-catenin-antibody (top). […] Note that in comparison to FIG. 2, cells were pretreated for only 30 minutes with Na-orthovanadate. Arrows indicate the proteins of interest. Molecular mass standards in kilodaltons are shown on the left.
# NBT II cells infected with the empty vector pLXSN (left) or human PTP LAR (right) were plated at 1×10^4 cells/cm^2 and stimulated after 24 h with EGF (100 ng/mL) for the indicated time intervals. Na-orthovanadate pretreatment was omitted to avoid irreversible inhibition of protein tyrosine phosphatase activity. Cells were lysed and in vitro associations were performed with 5 μg of the GST-E-cadherin cytoplasmic protein or GST in a three-fold molar excess. Proteins were separated by SDS-PAGE, and the levels of free, uncomplexed β-catenin were analyzed by Western blotting with an anti-β-catenin antibody (top). […] Arrows indicate the proteins of interest. […]
# [3] = system: β-catenin and plakoglobin; assay: Tyrosine phosphorylation of β-catenin and plakoglobin in migrating NBT II cells (immunoprecipitation, Western blot); type: cell-based, rat; conditions: pretreatment with 1 mM Na-orthovanadate
# Procedure: NBT II cells were plated at a density of 1×10^4 cells/cm^2. Twenty-four hours later growth factors were added to induce migration (EGF: 100 ng/mL; aFGF: 30 ng/mL including 50 μg/mL heparin; Ultroser G: 2%). Ninety minutes before lysis, Na-orthovanadate (1 mM) was added (right) or not (left). As a positive control, cells were treated for 10 minutes with pervanadate. After lysis the cadherin/catenin complex was immunoprecipitated and precipitates were separated by SDS-PAGE. Tyrosine phosphorylation levels were analyzed by Western blotting with an anti-phosphotyrosine antibody (top). The membranes were reprobed with specific antibodies to E-cadherin (middle) or the catenins (bottom) to assure equal amounts of precipitated proteins. Highly tyrosine phosphorylated β-catenin (as hereafter pervanadate treatment) was not efficiently immunodecorated in the reblot. Arrows indicate the proteins of interest. Molecular mass standards in kilodaltons are shown on the left.
# Transient Expression, Cell Lysis, and Immunoprecipitation—Transient transfection of human 293 embryonic kidney cells was performed as described (Chen, et al. (1987) Mol. Cell. Biol. 7, 2745-2752, hereby incorporated herein by reference in its entirety, including any drawings, figures, or tables). For biochemical analysis, NBT II cells were plated at a density of 1×10^4 cells/cm^2 at the day before lysis. […]
# NBT II cells [4] = assay: DNA-synthesis and proliferation rate of NBT II-hPTP LAR cell lines; type: cell-based, rat; conditions: ectopic expression in NBT II cells
# NBT II cells [5] = assay: Tumor formation in nude mice; type: in vivo, Swiss nude mice; conditions: NBT II hPTP LAR cells injected subcutaneously into flank, 2×10^6/50 μL
# Procedure: NBT II cells, infected with the empty vector pLXSN (filled triangle) or human PTP LAR (filled square), were injected (2×10^6/50 μL) subcutaneously into the flank region of Swiss nude mice. Tumor formation was monitored.
# Tumor formation in Nude Mice—NBT II cells were resuspended at a cell density of 2×10^6/50 μL in MEM and injected subcutaneously into the flank region of Swiss nude mice (IGR Villejuif, Paris, France). Tumor formation was monitored by measuring the width (W) and length (L) of the tumors with W<L. The tumor volume was calculated according to the formula (W^2×L×π/6). Assays were performed at least in triplicate.
# NBT II cells [6] = assay: Scatter assay of NBT II cells after EGF treatment; type: cell-based, rat; conditions: ectopic expression, about twice the PTP LAR expression of parental cells; EGF 100 ng/mL
# Procedure: FIGS. 7A and 7B show a scatter assay of NBT II pLXSN and NBT II hPTP LAR cells. In FIG. 7A, NBT II cells infected with the empty vector pLXSN (left) or human PTP LAR (right) were plated at 1×10^4 cells/cm^2 and stimulated 24 h later with EGF (100 ng/mL) as indicated. After 7 h, the migration morphology was documented by photography.
# To this end, 1000 cells per dish from randomly chosen microscopic fields were counted; assays were performed in triplicate. A cell was judged as a migrating cell when it had changed from a cobblestone-like, epithelial morphology to a migrating, fibroblastoid phenotype.
# Migration Assays—For in vitro wound assays, NBT II cells were plated at a density of 7×10^4 cells/cm^2. After 24 hours the confluent monolayer was scratched with a pipette tip to create a cell free area, growth factors were added, and wound closure was documented by photography. For scatter assays, cells were plated at a cell density of 1×10^4 cells/cm^2. Growth factors were added after 24 hours, and the morphology of cells and the dispersion of small colonies were documented by photography. Quantification of migration was performed by counting single cells with fibroblastoid migration morphology compared to cells in groups with epithelial morphology in different, randomly chosen microscopic fields. 1000 cells per dish were counted. All migration assays were performed in triplicate. […]
# [7] = inhibition of PI3K or MAPK, concentration not given
molecule,measurement,setting,value
COc1cccc(-c2cc(=O)c3ccccc3o2)c1N [PD98059],effect on cell migration (wound closure),NBT II cells [1]; [7],completely abolished cell migration
EGF: growth factor used to induce epithelial cell migration [reference compound],free pool of β-catenin,[2]; NBT II cells,increase of the free pool of β-catenin
O=c1cc(N2CCOCC2)oc2c(-c3ccccc3)cccc12 [ly295002],effect on cell migration (wound closure),NBT II cells [1]; [7],completely abolished cell migration
O=c1c(-c2ccc(O)cc2)coc2cc(O)cc(O)c12 [Genistein],effect on cell migration (wound closure),"NBT II cells [1]; Genistein 250 μM, added one hour before the growth factors, inhibition of tyrosine kinases",completely abolished cell migration
[Na+].[Na+].[Na+].[O]=[V]([O-])([O-])[O-] [Na-orthovanadate],tyrosine phosphorylation of β-catenin and plakoglobin,[3],increased tyrosine phosphorylation
C[C@@]1(CO)[C@H](O)CC[C@@]2(C)[C@H]1CC[C@H]1C[C@@H]3C[C@@]12CC[C@]3(O)CO [Aphidicolin],effect on cell migration (wound closure),"NBT II cells [1]; Aphidicolin 1.5 μM, added 1 hour before the growth factors, inhibition of DNA-synthesis",did not interfere with migration
hPTP LAR: full-length human PTP LAR ectopically expressed in NBT II cells by retroviral gene transfer (pLXSN),DNA-synthesis and proliferation rate,NBT II cells [4],not affected
same,tumor growth in comparison to NBT II pLXSN cells,NBT II cells [5],significantly reduced tumor growth
same,tyrosine phosphorylation and increase of the free pool of β-catenin,"[2]; NBT II-hPTP LAR-expressing cells, no Na-orthovanadate","neither tyrosine phosphorylation, nor an increase in the free pool of β-catenin were detectable"
same,EMT and motility relative to vector-control infected cell lines (NBT II pLXSN),NBT II cells [6],about 40%
